Experimental data from ChEMBL document CHEMBL5674860, “Optimized Dual-Glo Assay to identify co-culture-induced drug vulnerabilities in 3D CRC models” (2024).

Experiments:
Format in all cases: functional, Homo sapiens
Parameters in all cases: dose or concentration left out as unconfirmed
[1] = test system: Colon cancer organoid; assay: Optimized Dual-Glo assay to identify co-culture induced drug vulnerabilities using donated chemical probes and chemogenomics kinase set in O06 CRC organoid and F06 CAF mono and co-culture. […] Cell viability is reported both mono and co-culture models.
[2] = test system: Colon cancer organoid; assay: Optimized Dual-Glo assay to identify co-culture induced drug vulnerabilities using donated chemical probes and chemogenomics kinase set in O14 CRC organoid and F14 CAF mono and co-culture. […] Cell viability is reported both mono and co-culture models.
[3] = test system: Colon cancer organoid; assay: Optimized Dual-Glo assay to identify co-culture induced drug vulnerabilities using donated chemical probes and chemogenomics kinase set in O20 CRC organoid and F20 CAF mono and co-culture. […] Cell viability is reported both mono and co-culture models.
[4] = Culture type Co-Culture, Transduced with Lucferase2-P2A-EGFP lentivirus
[5] = Culture type Co-Culture, Transduced with Renilla-dsRed lentivirus
[6] = Culture type Mono-Culture, Transduced with Lucferase2-P2A-EGFP lentivirus
[7] = Culture type Mono-Culture, Transduced with Renilla-dsRed lentivirus

Row | SMILES | Cell Viability [1, 4] [%] | Cell Viability [1, 5] [%] | Cell Viability [1, 6] [%] | Cell Viability [1, 7] [%] | Cell Viability [2, 4] [%] | Cell Viability [2, 5] [%] | Cell Viability [2, 6] [%] | Cell Viability [2, 7] [%] | Cell Viability [3, 4] [%] | Cell Viability [3, 5] [%] | Cell Viability [3, 6] [%] | Cell Viability [3, 7] [%]
1 | N#CC1(c2ccccn2)CCN(Cc2cc(C(=O)O)c(=O)n3ccccc23)CC1 [MSD-M1PAM] | 12.088 | 188.309 | 35.5128 | 99.638 | 126.16 | 122.221 | 72.0486 | 98.779 | 53.1969 | 117.537 | 81.9362 | 89.7444
2 | O=C(NCC(=O)N1CCCC1)Nc1ccc2cnccc2c1 | 80.3687 | 124.064 | 84.4387 | 94.1078 | 77.6259 | 126.417 | 75.4606 | 109.537 | 120.858 | 100.064 | 123.325 | 84.2387
3 | CNCCN1CCC(c2cc(CN(C)C(=O)c3cccc(Oc4ccccc4)c3)ccn2)CC1 | 83.6812 | 129.007 | 98.3617 | 135.689 | 99.3221 | 120.381 | 93.8948 | 118.528 | 67.0647 | 133.473 | 86.7663 | 93.4663
4 | CCNC(=O)c1cc2c(N3CCOC[C@@H]3C)ccnc2n1C | 128.018 | 156.16 | 122.983 | 98.196 | 83.5289 | 107.252 | 73.6623 | 93.9449 | 107.341 | 102.95 | 119.318 | 105.417
5 | CC[C@@H]1CN(C(=O)NCC(F)(F)F)C[C@@H]1c1cnc2cnc3[nH]ccc3n12 [UPADACITINIB] | 104.182 | 86.3482 | 126.811 | 90.1732 | 168.996 | 89.117 | 123.387 | 83.332 | 123.754 | 83.5298 | 89.3672 | 88.6624
6 | CS(=O)(=O)N1CCN(Cc2cc3nc(-c4cccc5[nH]ncc45)nc(N4CCOCC4)c3s2)CC1 [PICTILISIB] | 43.124 | 60.0718 | 35.1251 | 58.2983 |  |  |  |  |  |  |  | 
7 | O=C(NCCN1CCOCC1)c1ccc2c(c1)C(=O)c1ccc(Nc3ccc(F)c(NC(=O)c4ccccc4)c3)cc1CC2 [FS-694] | 67.8661 | 67.282 | 66.9088 | 83.7797 | 102.563 | 98.243 | 144.079 | 81.8914 | 66.004 | 119.038 | 94.4809 | 79.2545
8 | COc1ccccc1C(=O)Nc1cc2c(cc1N1CCCC1)n(C)c(=O)n2C |  |  |  |  | 94.3985 | 117.237 | 96.8906 | 95.8256 | 113.69 | 143.545 | 104.265 | 110.449
